Columns and labels:
[1] = target: T1, Homoprotocatechuate 2,3-dioxygenase (FeHPCD), Y257F variant (Brevibacterium fuscum, UniProt Q45135, Y257F); test: UV-vis spectral change on anaerobic binding
[2] = target: T1, Homoprotocatechuate 2,3-dioxygenase (FeHPCD), Y257F variant; test: competition with 4NC by UV-vis; type: binding
[3] = target: Homoprotocatechuate 2,3-dioxygenase (FeHPCD) (Brevibacterium fuscum, UniProt Q45135); test: competition with 4NC by UV-vis; type: binding

Compound | Kd [1] [µM] | Kd [2] [µM] | Kd [3] [µM]
O=[N+]([O-])c1ccc(O)c(O)c1 [4NC, 4-nitrocatechol] | ~5 | – | –
O=C(O)Cc1ccc(O)c(O)c1 [HPCA, homoprotocatechuate] | – | < 5 | < 5

Source: PMC3513391 (Biochemistry, 2012)
